Laboratory results as given in patent US10525071B2, “Compositions containing PUFA and methods of use thereof” (MASSACHUSETS INSTITUE OF TECHNOLOGY, priority 2005, dated 2020).

How the values were obtained:
SHSY-5Y cells = experiment: 14C-choline incorporation into phospholipids in SHSY-5Y cells; format: cell-based, human; conditions: for phospholipid synthesis: 18 hr with 10 μM fatty acid, FIG. 3A
Description: (§1) Cells were homogenized in 100 volumes of ice-cold deionized water using a tissue degrader (Polytron PT 10-35, Kinematica A G, Switzerland); 1 ml of aliquots were then mixed with 3 ml of chloroform+methanol mixture (2:1 v/v) and vortexed vigorously for 30 seconds. After cooling for 1 h on ice, the mixture was mixed sequentially with 3 ml of chloroform+methanol mixture (2:1 v/v) and 1 ml of ice-cold deionized water. The mixture was vortexed vigorously and allowed to stand overnight in the cold room (18 h). The organic (lower) and aqueous (upper) phases of the mixtures were separated by centrifugation (10 min at 4° C.; 1000 g). An aliquot (2 ml) of the upper phase was used for determination of CDP-Choline (see below), and 0.1-0.4 ml aliquots of the lower phase were dried under vacuum for phospholipid analysis. Residues of 0.1 ml aliquots of the lower phase were assayed for total phospholipid content by measuring phosphorus. Residues of 0.4 ml aliquots of the lower phase were reconstituted in 40 μl methanol and subjected to thin-layer chromatography using silica G plates (Adsorbosil Plus-1®, Alltech), and a system consisting of chloroform/ethanol/triethylamine/water (30:34:30:8) as the mobile phase. Phospholipid standards were used to identify the corresponding bands under UV light after the plates were sprayed with 0.1% diphenylhexatriene in petroleum ether. Bands for individual phospholipid classes (PC, PE, SM, PS and PI) were scraped off the plates and extracted into 1 ml of methanol; dried under vacuum; and assayed for phosphorus content. Total phosphorus was determined by comparison with standard curves by using KH2PO4 run with each assay. To each sample was added 0.5 ml of 4.5% HclO4/27% H2SO4 and tubes were heated at 180° C. for 3 h. After cooling to room temperature, 5 ml of the color reagent (a 10:1 dilution of solutions containing 2.5 mg/ml ammonium molybdate, 8.2 mg/ml sodium acetate and 100 mg/ml ascorbic acid respectively) was added and the tubes were incubated for 2 h, 37° C. Absorbance was measured spectrophotometrically at 820 nm. Phospholipid mass was determined by multiplying the phosphorus content by 25.
SHSY-5Y cells were grown to near confluency in DMEM+10% FBS in 35 mm dishes. Cells were incubated for 18 hr in serum-free DMEM+1% FBS containing 30 μM choline+/−10 μM of DHA, arachidonic acid, or palmitic acid. Cells were then labeled, and labeled phospholipids were quantified as described for Example 1.
DHA was dissolved in ethanol to a […] concentration and frozen in 10 microliter aliquots at −80° C. For each experiment, one aliquot was diluted in ethanol to 10 micromolar; the volume giving the desired final solution in incubation medium was mixed with an equal volume of BSA solution (1 gm/ml).

brain phospholipids = experiment: Brain phospholipid levels after UMP diet and/or PUFA gavage; format: in vivo, gerbil; conditions: for brain phospholipid levels: 3 weeks, summary of Table 6; for increase in brain total phospholipids over control: DHA 300 mg/kg/day gavage, UMP 0.5% of chow
Description: as §1
Control standard diet (Table 4) consisted of Teklad Global 16% protein rodent diet (Harlan Teklad, Madison, Wis.), which contained 0.1% choline chloride (CC), corresponding to a daily dose of 50 mg/kg/day. UMP was provided as 0.5% UMP.2Na^+ weight/weight, added to the control diet, also prepared by Harlan Teklad, corresponding to 240 mg/kg/day UMP. DHA was administered as 300 mg/kg/day in 200 microliter (mcL)/day 5% Arabic Gum solution, while groups not receiving DHA were administered vehicle (5% Arabic Gum) alone. DHA was provided by Nu-Chek Prep (Elysian, Minn.) and UMP by Numico (Wagenigen, NL).
Gerbils were anesthetized with ketamine and xylazine (80 and 10 mg/kg bwt, i.p.) and sacrificed by immersing the head into liquid nitrogen for 2 min, followed by decapitation. Brains were immediately and quickly (30 seconds) removed using a bone rongeur and stored at −80° C.
Frozen brain hemispheres were weighed and homogenized in 100 volumes of ice-cold deionized water using a tissue degrader (Polytron PT 10-35, Kinematica A G, Switzerland), then analyzed as described in Example 1.
Protein in whole brain homogenate sample was measured for using bicinchoninic acid reagent (Perkin Elmer, Norwalk, Conn., USA). DNA was measured by measuring 460 nm emission of samples on a fluorometer in the presence of bisbenzimidizole, a fluorescent dye known as Hoechst H 33258 (American Hoechst Corporation), which has an excitation maximum at 356 nm and an emission maximum of 458 when bound to DNA.
Adult gerbils were administered control standard diet (Table 4) with our without 0.5% UMP and/or 300 mg/kg/day DHA, EPA, or AA. Groups not receiving DHA were administered vehicle (5% Arabic Gum) alone.

PC-12 cells = experiment: 14C-choline incorporation into phospholipids in PC-12 cells; format: cell-based; conditions: for Phosphatidylcholine (PC) synthesis (incorporation of 14C label into PC): 18 hr pre-incubation with 5 μM fatty acid, FIG. 1
Description: PC-12 cells were maintained in Dulbecco's modified Eagle's medium (DMEM)+10% fetal bovine serum (FBS). For experiments, cells were grown in quintuplicate collagen-coated 35 millimeter (mm) dishes. Cells were incubated for 18 hours (hr) in serum-free DMEM containing 28 μM choline+/−5 micromolar (μM) of DHA, oleic acid, or palmitic acid. Cells were then labeled for 2.5 hr with 0.5 microcurie (μCi)/ml ^14C-choline in serum-free DMEM containing 10-micromolar (μM) choline.
as §1, with “To each sample was added 0.5 ml of 4.5% HclO4/27% H2SO4 and tubes were heated at 180° C. for 3 h. After cooling to room temperature, 5 ml of the color reagent (a 10:1 dilution of solutions containing 2.5 mg/ml ammonium molybdate, 8.2 mg/ml sodium acetate and 100 mg/ml ascorbic acid respectively) was added and the tubes were incubated for 2 h, 37° C.” left out
In order to assess the effect of omega-3 fatty acids on phospholipid synthesis, PC-12 cells were incubated with ^14C-labeled choline, following an 18-hour pre-incubation with or without DHA. Incorporation of label into phospholipids was then measured. […]
To further characterize the stimulation of phospholipid synthesis by omega-3 fatty acids, PC-12 cells were pre-treated with different doses of DHA and exposed to labeled choline as described in Example 1, then incorporation of ^14C-label into phospholipids was measured. […]

brain CDP-choline = experiment: Brain CDP-choline and CDP-ethanolamine levels (HPLC); format: in vivo, gerbil; conditions: 28 days; for brain CDP-choline levels: FIG. 5A; for brain CDP-ethanolamine levels: FIG. 5B
Description: FIG. 5. Effects of DHA on brain CDP-choline levels (A) and CDP-ethanolamine levels (B). Groups of 8 gerbils received either a control or a UMP-containing diet, and, by gavage, DHA (in a vehicle of 5% gum Arabic solution) or 5% gum Arabic solution alone for 28 days. On the 29th day brains were harvested and assayed for CDP-choline. Data are presented as means±SEM. Statistical analysis was performed using one- or two-way ANOVA followed by Tukey test. a: P<0.05 when compared with the values for control diet plus vehicle group; b: P<0.05 when compared with values for UMP diet plus vehicle group.
Aliquots (2 ml) of the upper (aqueous) phase were dried under a vacuum, reconstituted, and injected into an HPLC. The dried samples were reconstituted in 100-200 μl water and were analyzed by HPLC on an anion exchange column (Alltech Hypersil APS-2, […], 250×4.6 mm). CDP-choline was eluted with a linear gradient of buffers A (H3PO4, 1.75 mM, pH 2.9) and B (NaH2PO2, 500 mM, pH 4.5) from 0 to 100% B over period of 30 min. With this system, CDP-choline was resolved from closely co-eluting substances such as UMP in an isocratic system over a period of 40 min. The retention time for CDP-choline was 9.5 min. The column was washed with buffer B at the end of each experiment and every several days to remove retained nucleotides. Individual nucleotide peaks were detected by UV absorption at 280 nm and were identified by comparison with the positions of authentic standards, as well as by the addition of nucleotide standards to samples.

| SMILES | phospholipid synthesis (SHSY-5Y cells) | brain phospholipid levels (brain phospholipids; gerbils) | increase in brain total phospholipids over control (brain phospholipids; gerbils, 4 weeks) [%] | increase in brain levels of PC (brain phospholipids; vs control, Table 5A) [%] | increase in brain levels of PE (brain phospholipids; vs control, Table 5A) [%] | increase in brain levels of PI (brain phospholipids; vs control, Table 5A) [%] | Phosphatidylcholine (PC) synthesis (incorporation of 14C label into PC) (PC-12 cells) | brain CDP-choline levels (brain CDP-choline) | brain CDP-ethanolamine levels (brain CDP-choline) | other results |
| --- | --- | --- | --- | --- | --- | --- | --- | --- | --- | --- |
| CCC=CCC=CCC=CCC=CCC=CCC=CCCC(=O)O [DHA, 4,7,10,13,16,19-docosahexaenoic acid] | not | increased | 12 | 22 | 20 | 52 | significantly increased | decreased | decreased | brain phospholipid, pmol phospholipid per milligrams (mg) protein (brain phospholipids; FIG. 4A, gerbils, 4 weeks, ANOVA vs control): statistically significant effect; increase in brain levels of sphingomyelin (brain phospholipids; vs control, Table 5A): 24%; synthesis of phospholipids (incorporation of 14C-label) (PC-12 cells; different doses of DHA, dose-dependent, FIG. 2): increased |
| CCC=CCC=CCC=CCC=CCC=CCCCC(=O)O [EPA, 5,8,11,14,17-eicosapentaenoic acid] |  | increased |  |  |  |  |  |  |  |  |
| O=c1ccn([C@@H]2O[C@H](COP(=O)(O)O)[C@@H](O)[C@H]2O)c(=O)[nH]1 [UMP, uridine monophosphate] |  |  | 5 | 13 | 29 | 48 |  | decreased | decreased | effects on brain phospholipids (brain phospholipids; After 1 week of treatment): no significant effects; PtdEtn (brain phospholipids; Table 5 part A, gerbil brain): 84 ± 8 nmol/mg prt; increases in all 5 of the phospholipids (brain phospholipids; Treatment for 3 weeks, Table 5B): smaller but still significant increases |
| CCCCCC=CCC=CCC=CCC=CCCCC(=O)O [arachidonic acid, 5,8,11,14-eicosatetraenoic acid] | enhanced | increased |  |  |  |  |  |  |  | synthesis of total phospholipids, PC, and phosphatidylethanolamine (SHSY-5Y cells; range of dosages, dose-dependent, FIG. 3B): increased |
| CCCCCCCC/C=C\CCCCCCCC(=O)O [oleic acid, reference compound] |  |  |  |  |  |  | not |  |  |  |
| CCCCCCCCCCCCCCCC(=O)O [palmitic acid, reference compound] | not |  |  |  |  |  | not |  |  |  |
